The nature of data set [1]: Solubility of the compound in buffer. In kind it is physicochemical.
Data set [2] concerns the target T1, Coagulation factor VII (Homo sapiens, UniProt P08709).
T1 sequence (P08709 whole entry): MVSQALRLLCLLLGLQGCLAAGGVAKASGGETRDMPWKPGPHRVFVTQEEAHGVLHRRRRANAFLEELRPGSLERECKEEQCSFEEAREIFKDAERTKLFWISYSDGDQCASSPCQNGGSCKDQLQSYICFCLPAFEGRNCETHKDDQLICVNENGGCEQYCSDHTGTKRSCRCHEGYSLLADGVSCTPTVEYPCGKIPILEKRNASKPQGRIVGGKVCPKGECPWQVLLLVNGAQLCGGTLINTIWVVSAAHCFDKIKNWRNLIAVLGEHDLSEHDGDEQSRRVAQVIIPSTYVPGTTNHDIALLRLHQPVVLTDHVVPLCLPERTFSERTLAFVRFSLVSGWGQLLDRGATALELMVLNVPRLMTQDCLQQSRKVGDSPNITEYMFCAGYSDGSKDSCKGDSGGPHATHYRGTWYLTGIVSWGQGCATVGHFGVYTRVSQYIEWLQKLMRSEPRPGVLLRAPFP
Nature of the data set: Inhibition of recombinant F7a using S-2288 as substrate after 15 mins by competitive binding assay.

Data set [3] concerns the target T2, Prothrombin (Homo sapiens, UniProt P00734). The data set can be described thus: Inhibition of thrombin using S-2288 as substrate after 15 mins by competitive binding assay.
In data set [4] the target is T3, Coagulation factor X (Homo sapiens, UniProt P00742). Nature of the data set: Inhibition of F10a using S-2288 as substrate after 15 mins by competitive binding assay.
Data set [5] addresses T1, Coagulation factor VII. The data set can be described thus: Inhibition of recombinant F7a using S-2288 as substrate after 15 mins by linear fitting analysis.
Data set [6] addresses T4, Coagulation factor VII (Homo sapiens) (UniProt P08709).
T4 sequence (whole entry): T1 sequence (P08709 whole entry)
Nature of the data set: Inhibition of recombinant F7a using S-2288 as substrate after 15 mins by competitive binding assay relative to control.

Data set [7] concerns the target T2, Prothrombin. Nature of the data set: Inhibition of thrombin using S-2288 as substrate after 15 mins by competitive binding assay relative to control.
The target of data set [8] is T3, Coagulation factor X. Nature of the data set: Inhibition of F10a using S-2288 as substrate after 15 mins by competitive binding assay relative to control.

As a reminder, the solubility is the dissolved amount per volume that the medium holds. Read a low solubility as a poorly soluble substance. For orientation: IC50 means the midpoint of a concentration-inhibition curve. Usually Ki stands for a dissociation constant, usually derived from enzyme kinetics or from competition with a known ligand. Usually inhibition stands for the share of the control response that was lost under treatment.

SMILES strings stand for the structures. Values after ≈ are worked out from the molar mass of the structure shown.

Turning to `Cc1c(C)c(S(=O)(=O)NC(=N)NCCC[C@H](NC(=O)[C@H](CC(C)C)NC(=O)OC(C)(C)C)C(=O)Cc2ccccc2)c(C)c2c1OC(C)(C)CC2`, in data set [1], the solubility amounted to 400 µM (≈ 291 µg/mL).

As for `C[C@@H](O)[C@H](NC(=O)[C@@H](N)Cc1ccc(O)cc1)C(=O)N[C@@H](CCCNC(=N)N)C(=O)Cc1ccccc1`, the solubility in data set [1] was 400 µM (≈ 205 µg/mL). The IC50 at Coagulation factor VII [2] is > 1340 µM.

In turn, `Cc1c(C)c(S(=O)(=O)NC(=N)NCCCC[C@H](NC(=O)[C@H](Cc2ccccc2)NC(=O)[C@@H](Cc2ccccc2)NC(=O)OCc2ccccc2)C(=O)Cc2ccccc2)c(C)c2c1OC(C)(C)CC2` had a solubility in data set [1] of 400 µM (≈ 383 µg/mL).

For the molecule `CC(=O)N[C@@H](Cc1ccc(OCc2ccccc2)cc1)C(=O)N[C@H](C(=O)N[C@@H](CCCCNC(=N)NS(=O)(=O)c1c(C)c(C)c2c(c1C)CCC(C)(C)O2)C(=O)Cc1ccccc1)[C@@H](C)OCc1ccccc1`, the concentration in solution in data set [1] (solubility) came to 400 µM (≈ 406 µg/mL).

On to `CC(=O)N[C@@H](Cc1ccc(O)cc1)C(=O)N[C@H](C(=O)N[C@@H](CCCNC(=N)N)C(=O)Cc1ccccc1)[C@@H](C)O`, for which the concentration in solution in data set [1] (solubility) came to 400 µM (≈ 222 µg/mL). Further, the IC50 on Coagulation factor VII [2] is > 1340 µM.

As for `Cc1c(C)c(S(=O)(=O)NC(=N)NCCCC[C@H](NC(=O)[C@H](CC(C)C)NC(=O)[C@H](Cc2ccc(OCc3ccccc3)cc2)NS(=O)(=O)Cc2ccccc2)C(=O)Cc2ccccc2)c(C)c2c1OC(C)(C)CC2`, the solubility in data set [1] worked out at 400 µM (≈ 420 µg/mL).

Turning to `C[C@@H](O)[C@H](NC(=O)[C@@H](N)Cc1ccc(O)cc1)C(=O)N[C@@H](CCCCN=C(N)N)C(=O)Cc1ccccc1`, the concentration for half-maximal inhibition (IC50) at Prothrombin [3] and on Coagulation factor X [4] was > 1340 µM each time.

In data set [1], `N=C(N)NCCC[C@H](NC(=O)[C@H](Cc1ccccc1)NC(=O)[C@H](Cc1ccccc1)NC(=O)OCc1ccccc1)C(=O)Cc1ccccc1` yielded a solubility of 400 µM (≈ 271 µg/mL). The IC50 on Coagulation factor VII [2] is 109 µM. Besides, the Ki on Coagulation factor VII [5] worked out at 89 µM.

In the case of `CC(=O)N[C@@H](Cc1ccccc1)C(=O)N[C@@H](Cc1ccccc1)C(=O)N[C@@H](CCCCNC(=N)NS(=O)(=O)c1c(C)c(C)c2c(c1C)CCC(C)(C)O2)C(=O)Cc1ccccc1`, the concentration in solution in data set [1] (solubility) came to 400 µM (≈ 346 µg/mL).

Consider `Cc1c(C)c(S(=O)(=O)NC(=N)NCCC[C@H](NC(=O)[C@@H](NC(=O)OC(C)(C)C)[C@@H](C)OCc2ccccc2)C(=O)Cc2ccccc2)c(C)c2c1OC(C)(C)CC2`, for which the concentration in solution in data set [1] (solubility) came to 400 µM (≈ 322 µg/mL).

In the case of `Cc1c(C)c(S(=O)(=O)NC(=N)NCCCC[C@H](NC(=O)[C@H](Cc2ccccc2)NC(=O)[C@H](Cc2ccccc2)NC(=O)OC(C)(C)C)C(=O)Cc2ccccc2)c(C)c2c1OC(C)(C)CC2`, in data set [1], the concentration in solution (solubility) was 400 µM (≈ 369 µg/mL).

`CC(=O)N[C@@H](Cc1ccccc1)C(=O)N[C@@H](Cc1ccccc1)C(=O)N[C@@H](CCCNC(=N)N)C(=O)Cc1ccccc1`: the solubility in data set [1] is 400 µM (≈ 234 µg/mL). Further, the IC50 on Coagulation factor VII [2] was > 400 µM.

`N=C(N)NCCC[C@H](NC(=O)[C@H](Cc1ccccc1)NC(=O)[C@H](Cc1ccccc1)NS(=O)(=O)Cc1ccccc1)C(=O)Cc1ccccc1` gave a solubility in data set [1] of 400 µM (≈ 279 µg/mL). The IC50 at Coagulation factor VII [2] was 26 µM. The Ki on Coagulation factor VII [5] was 43 µM.

In the case of `Cc1c(C)c(S(=O)(=O)NC(=N)NCCCC[C@H](NC(=O)[C@H](Cc2ccccc2)NC(=O)[C@H](Cc2ccccc2)NC(=O)OCc2ccccc2)C(=O)Cc2ccccc2)c(C)c2c1OC(C)(C)CC2`, the concentration in solution in data set [1] (solubility) was 400 µM (≈ 383 µg/mL).

Take `N=C(N)NCCC[C@H](NC(=O)[C@H](Cc1ccccc1)NC(=O)[C@@H](N)Cc1ccccc1)C(=O)Cc1ccccc1`: in data set [1], the concentration in solution (solubility) was 400 µM (≈ 217 µg/mL). Besides, the concentration for half-maximal inhibition (IC50) on Coagulation factor VII [2] was > 1480 µM.

In data set [1], `Cc1c(C)c(S(=O)(=O)NC(=N)NCCCC[C@H](NC(=O)[C@H](Cc2ccccc2)NC(=O)[C@@H](Cc2ccccc2)NC(=O)OC(C)(C)C)C(=O)Cc2ccccc2)c(C)c2c1OC(C)(C)CC2` showed a solubility of 400 µM (≈ 369 µg/mL).

The molecule `N=C(N)NCCC[C@H](NC(=O)[C@H](Cc1ccccc1)NC(=O)[C@@H](Cc1ccccc1)NS(=O)(=O)Cc1ccccc1)C(=O)Cc1ccccc1` returned a solubility in data set [1] of 400 µM (≈ 279 µg/mL). On Coagulation factor VII [2], the IC50 stood at 640 µM.

Take `C[C@@H](O)[C@H](NC(=O)[C@@H](N)Cc1ccc(O)cc1)C(=O)N[C@@H](CCCCNC(=N)N)C(=O)Cc1ccccc1`: the values for the inhibition (in data set [6]; on Prothrombin [7]; at Coagulation factor X [8]) were 18.9%, 5.5% and 30.4%, respectively.

As for `CC(C)C[C@H](NC(=O)[C@H](Cc1ccccc1)NS(=O)(=O)Cc1ccccc1)C(=O)N[C@@H](CCCNC(=N)N)C(=O)Cc1ccccc1`, in data set [1], the solubility came out at 400 µM (≈ 265 µg/mL). For the same molecule, the IC50 on Coagulation factor VII [2] was > 580 µM.

As to `Cc1c(C)c(S(=O)(=O)NC(=N)NCCCC[C@H](NC(=O)[C@H](CC(C)C)NC(=O)[C@H](Cc2ccccc2)NC(=O)OC(C)(C)C)C(=O)Cc2ccccc2)c(C)c2c1OC(C)(C)CC2`, in data set [1], the solubility turned out to be 400 µM (≈ 356 µg/mL).

In turn, `Cc1c(C)c(S(=O)(=O)NC(=N)NCCC[C@H](NC(=O)[C@H](Cc2ccccc2)NC(=O)OC(C)(C)C)C(=O)Cc2ccccc2)c(C)c2c1OC(C)(C)CC2` came in with a solubility in data set [1] of 400 µM (≈ 305 µg/mL).

For `Cc1c(C)c(S(=O)(=O)NC(=N)NCCCC[C@H](NC(=O)[C@H](CC(C)C)NC(=O)[C@H](Cc2ccc(OCc3ccccc3)cc2)NC(=O)OC(C)(C)C)C(=O)Cc2ccccc2)c(C)c2c1OC(C)(C)CC2`, the solubility in data set [1] was determined as 400 µM (≈ 398 µg/mL).

`N=C(N)NCCC[C@H](NC(=O)[C@H](Cc1ccccc1)NC(=O)[C@@H](Cc1ccccc1)NC(=O)OCc1ccccc1)C(=O)Cc1ccccc1`: the concentration in solution in data set [1] (solubility) came to 400 µM (≈ 271 µg/mL). Further, on Coagulation factor VII [2], the 50% inhibitory concentration (IC50) came to 16 µM. In addition, the Ki on Coagulation factor VII [5] came out at 8 µM.

In the case of `Cc1c(C)c(S(=O)(=O)NC(=N)NCCCC[C@H](NC(=O)[C@@H](NC(=O)[C@H](Cc2ccc(OCc3ccccc3)cc2)NS(=O)(=O)Cc2ccccc2)[C@@H](C)OCc2ccccc2)C(=O)Cc2ccccc2)c(C)c2c1OC(C)(C)CC2`, in data set [1], the solubility is 400 µM (≈ 451 µg/mL).

For the origin of these results see ChEMBL document CHEMBL1795213, “Design, synthesis and biological activity of novel peptidyl benzyl ketone FVIIa inhibitors” (Bioorg Med Chem Lett, 2011).
